The values that follow come from PubChem BioAssay (NCI).

The structures appear in SMILES notation.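 Following 48 hours of exposure in 96-well plates, responses at five concentrations were used to interpolate endpoints linearly. GI50 = concentration required for 50% inhibition of growth. TGI: concentration producing complete growth inhibition.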

Some test systems named below: HOP-62 NSCLC; DU-145 prostate; HOP-92 NSCLC; M14 melanoma; A498 renal; OVCAR-4 ovarian; HL-60(TB) leukemia; NCI-H226 lung; RPMI-8226 leukemia; RXF 393 renal.
What all share (experiment): NCI anticancer screen, dose series, 48 h

On to `Cc1cc(C)c(NC(=O)c2sc3nc4c(cc3c2N)C(=O)CCC4)c(C)c1`, for which the GI50 with HOP-62 NSCLC is 4.56 µM; in the assay with DU-145 prostate, 3.36 µM; in the assay on HOP-92 NSCLC it was 0.114 µM; with M14 melanoma, 2.31 µM; in the assay on A498 renal it was 3.4 µM; in the assay with OVCAR-4 ovarian it was 6.89 µM. In addition, the GI50 in the assay with HL-60(TB) leukemia is 3.64 µM; in the assay on NCI-H226 lung it was 5.81 µM; in the assay with RPMI-8226 leukemia, 4.74 µM; with RXF 393 renal, 1.32 µM. The TGI with HOP-62 NSCLC is greater than 100 µM; in the assay on DU-145 prostate, greater than 100 µM; in the assay with HOP-92 NSCLC, 32.1 µM; in the assay on M14 melanoma it was greater than 100 µM; in the assay on A498 renal, greater than 51.5 µM; with OVCAR-4 ovarian it was greater than 100 µM. The TGI is greater than 100 µM in the assay on HL-60(TB) leukemia, greater than 100 µM with NCI-H226 lung, greater than 100 µM with RPMI-8226 leukemia and 4.43 µM in the assay with RXF 393 renal.

Regarding `COc1ccc(-c2[nH]c3ccc(OC)cc3c2/C=C(\C#N)S(=O)(=O)c2ccccc2)cc1`, the GI50 in the assay on HOP-62 NSCLC was 2.97 µM; with DU-145 prostate it was 0.785 µM; in the assay with HOP-92 NSCLC, 0.692 µM; with M14 melanoma, 0.494 µM; with A498 renal, 0.966 µM; in the assay on OVCAR-4 ovarian, 2.09 µM. The GI50 was 0.812 µM in the assay with HL-60(TB) leukemia, 3.51 µM with NCI-H226 lung, 1.28 µM in the assay with RPMI-8226 leukemia and greater than 100 µM in the assay with RXF 393 renal. In addition, the TGI with HOP-62 NSCLC is 48.1 µM; in the assay on DU-145 prostate it was greater than 31.4 µM; in the assay with HOP-92 NSCLC, 6.81 µM; with M14 melanoma, 18.2 µM; in the assay with A498 renal, 8.18 µM; in the assay with OVCAR-4 ovarian it was greater than 100 µM. For the same compound, the TGI in the assay on NCI-H226 lung is greater than 100 µM; in the assay with RPMI-8226 leukemia it was 6.64 µM; in the assay on RXF 393 renal it was greater than 100 µM.

With `c1ccc(Sc2ccc(Cc3nc4cc5ccccc5cc4[nH]3)cc2)cc1`, the GI50 in the assay on HOP-62 NSCLC was 8.71 µM; with DU-145 prostate it was 23 µM; with HOP-92 NSCLC, 6.33 µM; in the assay on M14 melanoma, 21 µM; in the assay with A498 renal it was 21.5 µM; in the assay on OVCAR-4 ovarian, 57.5 µM. Also, the GI50 was 76.4 µM with HL-60(TB) leukemia, 2.48 µM with NCI-H226 lung, 3.77 µM with RPMI-8226 leukemia and 21.2 µM with RXF 393 renal. Also, the TGI was greater than 75.5 µM in the assay with HOP-62 NSCLC; greater than 100 µM in the assay on DU-145 prostate; 66.3 µM in the assay with HOP-92 NSCLC; greater than 74.5 µM in the assay with M14 melanoma; 57.8 µM in the assay with A498 renal; greater than 100 µM with OVCAR-4 ovarian. In addition, the TGI was greater than 100 µM in the assay on HL-60(TB) leukemia, 26.9 µM in the assay on NCI-H226 lung, 49.7 µM in the assay with RPMI-8226 leukemia and greater than 100 µM in the assay with RXF 393 renal.

As to `COc1ccc(C[N+](C)(C)N)cc1OC`, the GI50 with HOP-62 NSCLC, in the assay with DU-145 prostate, in the assay on HOP-92 NSCLC, with M14 melanoma, with OVCAR-4 ovarian and with HL-60(TB) leukemia was greater than 100 µM in each case. The GI50 in the assay on RPMI-8226 leukemia is greater than 100 µM. Moreover, the TGI with HOP-62 NSCLC, in the assay on DU-145 prostate, in the assay with HOP-92 NSCLC, in the assay with M14 melanoma, with A498 renal and in the assay on OVCAR-4 ovarian was greater than 100 µM throughout. In addition, the TGI in the assay on HL-60(TB) leukemia, with NCI-H226 lung, with RPMI-8226 leukemia and in the assay with RXF 393 renal was greater than 100 µM throughout.

On to `CCNCCNc1cc(-c2ccc(C(F)(F)F)cc2)c(C#N)c2nc3ccccc3n12`, for which the GI50 in the assay on HOP-62 NSCLC was 1.56 µM; with DU-145 prostate, 1.44 µM; in the assay with HOP-92 NSCLC, 1.55 µM; with M14 melanoma it was 1.66 µM; in the assay on A498 renal, 1.86 µM; in the assay with OVCAR-4 ovarian, 0.469 µM. Besides, the GI50 with HL-60(TB) leukemia was 0.203 µM; with NCI-H226 lung, 1.7 µM; with RPMI-8226 leukemia, 1.36 µM; in the assay on RXF 393 renal, 1.69 µM. For the same compound, the TGI came to 3.18 µM in the assay on HOP-62 NSCLC; 2.78 µM in the assay on DU-145 prostate; 2.98 µM in the assay with HOP-92 NSCLC; 3.16 µM in the assay on M14 melanoma; 3.33 µM in the assay on A498 renal; 1.78 µM in the assay on OVCAR-4 ovarian. Further, the TGI in the assay with HL-60(TB) leukemia stood at 0.468 µM; with NCI-H226 lung, 3.53 µM; with RPMI-8226 leukemia, 3.61 µM; with RXF 393 renal, 3.16 µM.

For `COc1cc2ncnc(-n3ncc4cc(NC(=O)Nc5ccccc5)ccc43)c2cc1OC`, the GI50 in the assay with HOP-62 NSCLC is 1.3 µM; with DU-145 prostate it was 0.867 µM; in the assay on HOP-92 NSCLC it was 0.707 µM; in the assay with M14 melanoma, 1.1 µM; in the assay with A498 renal, 0.21 µM; in the assay with OVCAR-4 ovarian, 1.01 µM. The GI50 with HL-60(TB) leukemia was 1.57 µM; in the assay on NCI-H226 lung, 1.07 µM; in the assay with RPMI-8226 leukemia, 0.934 µM; with RXF 393 renal it was 1.04 µM. Moreover, the TGI with DU-145 prostate was determined as 11.4 µM; in the assay with HOP-92 NSCLC it was 4.15 µM; in the assay on M14 melanoma it was 4.22 µM; in the assay with A498 renal it was 0.896 µM; in the assay with OVCAR-4 ovarian, 4.26 µM; with HL-60(TB) leukemia, 4.52 µM. Further, the TGI in the assay with NCI-H226 lung amounted to 4.06 µM; with RPMI-8226 leukemia, 12 µM; in the assay on RXF 393 renal it was 2.76 µM.

In the case of `C=C(C)[C@@H]1CC[C@]2(CO)CC[C@]3(C)[C@H](CC[C@@H]4[C@@]5(C)C=C(C#N)C(=O)C(C)(C)[C@@H]5CC[C@]43C)[C@@H]12`, the GI50 in the assay on HOP-62 NSCLC was 1.74 µM; in the assay on DU-145 prostate it was 1.97 µM; with HOP-92 NSCLC it was 2.22 µM; with M14 melanoma, 1.55 µM; in the assay with A498 renal, 1.37 µM; with OVCAR-4 ovarian, 0.769 µM. Moreover, the GI50 is 0.471 µM in the assay with HL-60(TB) leukemia, 2.39 µM in the assay with NCI-H226 lung, 0.809 µM with RPMI-8226 leukemia and 1.13 µM with RXF 393 renal. The TGI is 3.85 µM in the assay on HOP-62 NSCLC; 5.75 µM in the assay with DU-145 prostate; 5.15 µM in the assay on HOP-92 NSCLC; 3.78 µM with M14 melanoma; 2.99 µM with A498 renal; 5.11 µM with OVCAR-4 ovarian. The TGI with HL-60(TB) leukemia was 5.5 µM; with NCI-H226 lung, 5.49 µM; with RPMI-8226 leukemia it was 3.86 µM; in the assay on RXF 393 renal, 2.76 µM.
